ChEMBL document CHEMBL5390210, “Discovery of novel indazole derivatives as SOS1 agonists that activate KRAS signaling” (Bioorg Med Chem, 2023)
The source made the active and inactive calls. The calls are words filed in the database; no cut-off is given here.

Experiments:
[1] = biological target: T1, Son of sevenless homolog 1 (Homo sapiens, UniProt Q07889); assay: Agonist activity at SOS1 in human HeLa cells expressing wild type KRAS assessed as increase in p-ERK level incubated for 30 mins by Western blot analysis; format: cell-based
T1 sequence (Q07889 whole entry): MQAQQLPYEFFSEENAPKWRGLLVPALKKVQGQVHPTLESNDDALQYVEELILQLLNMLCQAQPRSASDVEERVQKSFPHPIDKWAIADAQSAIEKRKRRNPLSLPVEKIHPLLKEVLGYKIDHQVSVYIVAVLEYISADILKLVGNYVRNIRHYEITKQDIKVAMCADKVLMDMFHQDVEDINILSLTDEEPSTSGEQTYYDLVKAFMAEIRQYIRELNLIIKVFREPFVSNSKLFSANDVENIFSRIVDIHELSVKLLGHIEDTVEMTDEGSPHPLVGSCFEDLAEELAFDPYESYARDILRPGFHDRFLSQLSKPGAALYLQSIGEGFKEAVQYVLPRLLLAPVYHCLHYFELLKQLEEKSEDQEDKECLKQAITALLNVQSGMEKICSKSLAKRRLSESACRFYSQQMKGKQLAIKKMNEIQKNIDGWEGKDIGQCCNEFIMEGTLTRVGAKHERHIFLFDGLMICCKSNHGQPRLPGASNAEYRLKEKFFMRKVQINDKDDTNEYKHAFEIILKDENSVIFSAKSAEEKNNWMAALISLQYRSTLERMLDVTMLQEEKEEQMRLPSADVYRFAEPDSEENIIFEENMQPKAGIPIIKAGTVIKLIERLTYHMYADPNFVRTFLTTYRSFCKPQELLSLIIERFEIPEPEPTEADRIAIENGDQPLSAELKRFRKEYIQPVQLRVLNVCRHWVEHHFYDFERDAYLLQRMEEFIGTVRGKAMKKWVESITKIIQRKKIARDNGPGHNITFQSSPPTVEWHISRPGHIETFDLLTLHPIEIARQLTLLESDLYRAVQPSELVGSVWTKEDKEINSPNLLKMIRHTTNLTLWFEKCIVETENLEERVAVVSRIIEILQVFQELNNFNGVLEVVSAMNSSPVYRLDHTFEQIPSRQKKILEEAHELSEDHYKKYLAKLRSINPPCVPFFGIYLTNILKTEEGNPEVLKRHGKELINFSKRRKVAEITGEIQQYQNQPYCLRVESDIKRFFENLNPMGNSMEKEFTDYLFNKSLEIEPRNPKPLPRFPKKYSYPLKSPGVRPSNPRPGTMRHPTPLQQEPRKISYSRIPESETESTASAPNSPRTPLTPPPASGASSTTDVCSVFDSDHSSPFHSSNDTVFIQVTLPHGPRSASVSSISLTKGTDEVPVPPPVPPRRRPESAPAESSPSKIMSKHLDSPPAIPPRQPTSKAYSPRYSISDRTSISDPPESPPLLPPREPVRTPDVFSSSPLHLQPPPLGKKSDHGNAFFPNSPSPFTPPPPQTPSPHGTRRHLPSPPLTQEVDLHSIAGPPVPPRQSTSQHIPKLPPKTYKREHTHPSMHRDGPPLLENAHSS

HeLa [2] = assay: Antiproliferative activity against human HeLa cells expressing wild type KRAS assessed as inhibition of cell growth incubated for 72 hrs by CCK-8 assay; format: functional, cell-based
NCI-H358 [3] = assay: Antiproliferative activity against human NCI-H358 cells expressing KRAS G12C mutant assessed as inhibition of cell growth incubated for 72 hrs by CCK-8 assay; format: functional, cell-based; conditions: NCI-H358, 72 h
A549 = assay: Antiproliferative activity against human A549 cells expressing KRAS G12S mutant assessed as inhibition of cell growth incubated for 72 hrs by CCK-8 assay; format: functional, cell-based; conditions: A549, 72 h
[4] = biological target: T2, Son of sevenless homolog 1 (Homo sapiens) (UniProt Q07889); assay: Binding affinity to SOS1 in human HeLa cells expressing wild type KRAS assessed as increase in thermal stability at 37 to 52 degreeC at 10 uM incubated for 1 hr by CETSA; format: cell-based
T2 sequence (whole entry): T1 sequence (Q07889 whole entry)

[5] = biological target: T2, Son of sevenless homolog 1 (Homo sapiens); assay: Binding affinity to SOS1 in human NCI-H358 cells expressing KRAS G12C mutant assessed as increase in thermal stability at 37 to 52 degreeC at 10 uM incubated for 1 hr by CETSA; format: cell-based
HeLa [6] = assay: Binding affinity to Pan-Ras GTPase in human HeLa cells expressing wild type KRAS assessed as increase in thermal stability at 37 to 60 degreeC at 10 uM incubated for 1 hr by CETSA; format: cell-based
NCI-H358 [7] = assay: Binding affinity to Pan-Ras GTPase in human NCI-H358 cells expressing KRAS G12C mutant assessed as increase in thermal stability at 37 to 60 degreeC at 10 uM incubated for 1 hr by CETSA; format: cell-based
[8] = biological target: T2, Son of sevenless homolog 1 (Homo sapiens); assay: Agonist activity at SOS1 in human HeLa cells with siRNA-mediated SOS1 knockdown assessed as activation of p-ERK1/2 at <25 uM incubated for 30 mins by immunoblot analysis; format: cell-based
[9] = biological target: T2, Son of sevenless homolog 1 (Homo sapiens); assay: Agonist activity at SOS1 in human HeLa cells assessed as activation of p-ERK1/2 at 3.1 to 25 uM incubated for 30 mins by immunoblot analysis; format: cell-based; conditions: filed as agonist, dose 3.1-25 µM
[10] = biological target: T2, Son of sevenless homolog 1 (Homo sapiens); assay: Agonist activity at SOS1 in human HeLa cells expressing wild type KRAS assessed as increase in ERK1/2 phosphorylation by measuring increase in RAS-GTP level incubated for 30 mins by Western blot based pull down assay; format: cell-based; conditions: filed as agonist, dose 0-25 µM
[11] = biological target: T2, Son of sevenless homolog 1 (Homo sapiens); assay: Agonist activity at SOS1 in human HeLa cells expressing wild type KRAS assessed as increase in p-ERK1/2 level at T202/Y204 residue at 0 to 12.5 uM incubated for 30 mins by Western blot analysis; format: cell-based; conditions: filed as agonist, dose 0-12.5 µM
[12] = biological target: T2, Son of sevenless homolog 1 (Homo sapiens); assay: Agonist activity at SOS1 in human HeLa cells expressing wild type KRAS assessed as increase in p-ERK1/2 level at T202/Y204 residue over 25 uM incubated for 30 mins by Western blot analysis; format: cell-based
NCI-H358 [13] = assay: Activation of RAS signaling pathway in human NCI-H358 cells expressing KRAS G12C mutant assessed as upregulation of p-ERK level incubated for 4 hrs by Western blot analysis; format: cell-based; conditions: filed as activator, dose 0-20 µM

## Cn1ncc2cc(NC(=O)c3nn(C4CC5(CNC5)C4)c4ccc(-c5cn[nH]c5)cc34)ccc21
[1]
  EC50: > 20 µM

## C=CC(=O)N1CC2(CC(n3nc(C(=O)N4CCCc5cc(OC)ccc54)c4ccccc43)C2)C1
[1]
  EC50: > 20 µM

## C=CC(=O)N1CC2(CC(n3nc(C(=O)Nc4ccc5c(cnn5C)c4)c4ccccc43)C2)C1
[1]
  EC50: > 20 µM

## C=CC(=O)N1CC2(CC(n3nc(C(=O)Nc4ccc5c(cnn5C)c4)c4cc(-c5cn[nH]c5)ccc43)C2)C1
[1]
  EC50: 1.53 µM
HeLa [2]
  IC50: 9.19 µM
NCI-H358 [3]
  IC50: 6.04 µM
A549
  IC50: 9.61 µM
[4]
  Activity: Active
[5]
  Activity: Active
HeLa [6]
  Activity: inactive
NCI-H358 [7]
  Activity: inactive
[8]
  Activity: inactive
[9]
  Activity: Active
[10]
  Activity: Active
[11]
  Activity: Active
[12]
  Activity: inactive

## C=CC(=O)N1CC2(CC(n3nc(-c4ccc5c(cnn5C)c4)c4cc(-c5c[nH]nc5C)c(Cl)cc43)C2)C1
[1]
  EC50: 14.2 µM
NCI-H358 [13]
  Activity: Dose-Dependent Effect

## Cn1ncc2cc(-c3nn(C4CC5(CNC5)C4)c4ccc(-c5cn[nH]c5)cc34)ccc21
[1]
  EC50: > 20 µM

## C=CC(=O)N1CC2(CC(n3nc(C(=O)Nc4ccc5[nH]ncc5c4)c4cc(-c5cn[nH]c5)ccc43)C2)C1
[1]
  EC50: > 20 µM

## C=CC(=O)N1CC2(CC(n3nc(-c4ccc5c(cnn5C)c4)c4cc(-c5cn[nH]c5)ccc43)C2)C1
[1]
  EC50: 9.01 µM

## CCC(=O)N1CC2(CC(n3nc(C(=O)Nc4ccc5c(cnn5C)c4)c4cc(-c5cn[nH]c5)ccc43)C2)C1
[1]
  EC50: 4.37 µM

## C=CC(=O)N1CC2(CC(n3nc(C(=O)Nc4ccc5[nH]ncc5c4)c4ccccc43)C2)C1
[1]
  EC50: > 20 µM

## C=CC(=O)N1CC2(CC(n3nc(C(=O)N4CCc5cc(OC)ccc5C4)c4ccccc43)C2)C1
[1]
  EC50: > 20 µM

## C=CC(=O)N1CC2(CC(n3nc(C(=O)Nc4ccc5cnn(C)c5c4)c4cc(-c5cn[nH]c5)ccc43)C2)C1
[1]
  EC50: 5.45 µM

## Cn1cc(-c2ccc3c(c2)c(-c2ccc4c(cnn4C)c2)nn3C2CC3(CNC3)C2)cn1
[1]
  EC50: > 20 µM
